Laboratory results taken from patent US10206394B2, “Herbicidal compounds” (Syngenta Participations AG, priority 2014, dated 2019).
Read-outs that look alike come from different tables or passages of the source.

Tests used:
Experiment in all cases: Glasshouse assay for herbicidal activity (pre- and post-emergence), percentage phytotoxicity
Format in all cases: in vivo
[1] = system: Echinochloa crus-galli (ECHCG); conditions: Echinochloa crus-galli
Outline: (§1)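 Percent injury was estimated by eye on a scale where 0% means no damage and 100% complete damage. Ratings came 15 DAA post-emergence and 20 DAA pre-emergence, with plants held under 16 h light and 65% humidity at 24/18 °C or 20/16 °C day/night.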

Avena fatua (AVEFA) = conditions: Avena fatua
Outline: as §1

Lolium perenne (LOLPE) = conditions: Lolium perenne
Outline: as §1

[2] = system: Alopecurus myosuroides (ALOMY); conditions: Alopecurus myosuroides
Outline: as §1

[3] = post-emergence, 360 h, 250 g/ha, post-emergence, 15 DAA, visual assessment (100%=total damage, 0%=no damage), read-out: Post-emergence herbicidal activity (percentage phytotoxicity) ECHCG POST
[4] = pre-emergence, 480 h, 250 g/ha, pre-emergence, 20 DAA, visual assessment (100%=total damage, 0%=no damage), read-out: Pre-emergence herbicidal activity (percentage phytotoxicity) ECHCG PRE
[5] = post-emergence, 360 h, 250 g/ha, post-emergence, 15 DAA, visual assessment (100%=total damage, 0%=no damage), read-out: Post-emergence herbicidal activity (percentage phytotoxicity) AVEFA POST
[6] = pre-emergence, 480 h, 250 g/ha, pre-emergence, 20 DAA, visual assessment (100%=total damage, 0%=no damage), read-out: Pre-emergence herbicidal activity (percentage phytotoxicity) AVEFA PRE
[7] = post-emergence, 360 h, 250 g/ha, post-emergence, 15 DAA, visual assessment (100%=total damage, 0%=no damage), read-out: Post-emergence herbicidal activity (percentage phytotoxicity) LOLPE POST
[8] = pre-emergence, 480 h, 250 g/ha, pre-emergence, 20 DAA, visual assessment (100%=total damage, 0%=no damage), read-out: Pre-emergence herbicidal activity (percentage phytotoxicity) LOLPE PRE
[9] = post-emergence, 360 h, 250 g/ha, post-emergence, 15 DAA, visual assessment (100%=total damage, 0%=no damage), read-out: Post-emergence herbicidal activity (percentage phytotoxicity) ALOMY POST
[10] = pre-emergence, 480 h, 250 g/ha, pre-emergence, 20 DAA, visual assessment (100%=total damage, 0%=no damage), read-out: Pre-emergence herbicidal activity (percentage phytotoxicity) ALOMY PRE
[11] = post-emergence, 360 h, POST-emergence, rate 250 g/ha, visual score 15 DAA (100%=total damage, 0%=no damage), read-out: Post-emergence herbicidal activity (percentage phytotoxicity) ECHCG POST
[12] = pre-emergence, 480 h, PRE-emergence, rate 250 g/ha, visual score 20 DAA (100%=total damage, 0%=no damage), read-out: Pre-emergence herbicidal activity (percentage phytotoxicity) ECHCG PRE
[13] = post-emergence, 360 h, POST-emergence, rate 250 g/ha, visual score 15 DAA (100%=total damage, 0%=no damage), read-out: Post-emergence herbicidal activity (percentage phytotoxicity) AVEFA POST
[14] = pre-emergence, 480 h, PRE-emergence, rate 250 g/ha, visual score 20 DAA (100%=total damage, 0%=no damage), read-out: Pre-emergence herbicidal activity (percentage phytotoxicity) AVEFA PRE
[15] = post-emergence, 360 h, POST-emergence, rate 250 g/ha, visual score 15 DAA (100%=total damage, 0%=no damage), read-out: Post-emergence herbicidal activity (percentage phytotoxicity) LOLPE POST
[16] = pre-emergence, 480 h, PRE-emergence, rate 250 g/ha, visual score 20 DAA (100%=total damage, 0%=no damage), read-out: Pre-emergence herbicidal activity (percentage phytotoxicity) LOLPE PRE
[17] = post-emergence, 360 h, POST-emergence, rate 250 g/ha, visual score 15 DAA (100%=total damage, 0%=no damage), read-out: Post-emergence herbicidal activity (percentage phytotoxicity) ALOMY POST
[18] = pre-emergence, 480 h, PRE-emergence, rate 250 g/ha, visual score 20 DAA (100%=total damage, 0%=no damage), read-out: Pre-emergence herbicidal activity (percentage phytotoxicity) ALOMY PRE
[19] = post-emergence, 360 h, Rate 250 g/ha, post-emergence, assessed visually 15 DAA, 100%=total damage, 0%=no damage, read-out: Post-emergence herbicidal activity (percentage phytotoxicity) ECHCG POST
[20] = pre-emergence, 480 h, Rate 250 g/ha, pre-emergence, assessed visually 20 DAA, 100%=total damage, 0%=no damage, read-out: Pre-emergence herbicidal activity (percentage phytotoxicity) ECHCG PRE
[21] = post-emergence, 360 h, Rate 250 g/ha, post-emergence, assessed visually 15 DAA, 100%=total damage, 0%=no damage, read-out: Post-emergence herbicidal activity (percentage phytotoxicity) AVEFA POST
[22] = pre-emergence, 480 h, Rate 250 g/ha, pre-emergence, assessed visually 20 DAA, 100%=total damage, 0%=no damage, read-out: Pre-emergence herbicidal activity (percentage phytotoxicity) AVEFA PRE
[23] = post-emergence, 360 h, Rate 250 g/ha, post-emergence, assessed visually 15 DAA, 100%=total damage, 0%=no damage, read-out: Post-emergence herbicidal activity (percentage phytotoxicity) LOLPE POST
[24] = pre-emergence, 480 h, Rate 250 g/ha, pre-emergence, assessed visually 20 DAA, 100%=total damage, 0%=no damage, read-out: Pre-emergence herbicidal activity (percentage phytotoxicity) LOLPE PRE
[25] = post-emergence, 360 h, Rate 250 g/ha, post-emergence, assessed visually 15 DAA, 100%=total damage, 0%=no damage, read-out: Post-emergence herbicidal activity (percentage phytotoxicity) ALOMY POST
[26] = pre-emergence, 480 h, Rate 250 g/ha, pre-emergence, assessed visually 20 DAA, 100%=total damage, 0%=no damage, read-out: Pre-emergence herbicidal activity (percentage phytotoxicity) ALOMY PRE

SMILES	pest or weed control at 250 g/ha [1, 3]	pest or weed control at 250 g/ha [1, 4]	pest or weed control at 250 g/ha (Avena fatua (AVEFA); [5])	pest or weed control at 250 g/ha (Avena fatua (AVEFA); [6])	pest or weed control at 250 g/ha (Lolium perenne (LOLPE); [7])	pest or weed control at 250 g/ha (Lolium perenne (LOLPE); [8])	pest or weed control at 250 g/ha [2, 9]	pest or weed control at 250 g/ha [2, 10]	pest or weed control at 250 g/ha [1, 19]	pest or weed control at 250 g/ha (Avena fatua (AVEFA); [21])	pest or weed control at 250 g/ha (Lolium perenne (LOLPE); [23])	pest or weed control at 250 g/ha [2, 25]	also measured
Cc1cc(OCC(F)(F)F)cc(C)c1C1C(=O)CC(CC(=O)N2CCOCC2)C1=O (centres unmarked) [Compound B146]	100%	100%	90%	50%	90%	90%	80%	90%					
C=C(F)CNC(=O)CC1CC(=O)C(c2c(C)cc(-c3ncc(F)cn3)cc2C)C1=O (centres unmarked) [Compound B294]													pest or weed control at 250 g/ha [1, 11]: 100%; pest or weed control at 250 g/ha [1, 12]: 100%; pest or weed control at 250 g/ha (Avena fatua (AVEFA); [13]): 100%; pest or weed control at 250 g/ha (Avena fatua (AVEFA); [14]): 100%; pest or weed control at 250 g/ha (Lolium perenne (LOLPE); [15]): 100%; pest or weed control at 250 g/ha (Lolium perenne (LOLPE); [16]): 100%; pest or weed control at 250 g/ha [2, 17]: 100%; pest or weed control at 250 g/ha [2, 18]: 90%
Cc1cc(-c2ccc(Cl)cn2)cc(C)c1C1C(=O)CC(CC(=O)NC(C)(C)C)C1=O (centres unmarked) [Compound A41]									100%	100%	100%	100%	pest or weed control at 250 g/ha [1, 20]: 100%; pest or weed control at 250 g/ha (Avena fatua (AVEFA); [22]): 70%; pest or weed control at 250 g/ha (Lolium perenne (LOLPE); [24]): 100%; pest or weed control at 250 g/ha [2, 26]: 100%
C#CCN(C)C(=O)CC1CC(=O)C(c2c(C)cc(/C=C/C)cc2CC)C1=O (centres unmarked) [Compound B195]													pest or weed control at 250 g/ha [1, 11]: 100%; pest or weed control at 250 g/ha [1, 12]: 100%; pest or weed control at 250 g/ha (Avena fatua (AVEFA); [13]): 100%; pest or weed control at 250 g/ha (Avena fatua (AVEFA); [14]): 80%; pest or weed control at 250 g/ha (Lolium perenne (LOLPE); [15]): 100%; pest or weed control at 250 g/ha (Lolium perenne (LOLPE); [16]): 100%; pest or weed control at 250 g/ha [2, 17]: 100%; pest or weed control at 250 g/ha [2, 18]: 90%
Cc1cc(-c2ccc(F)cc2)cc(C)c1C1C(=O)CC(CC(=O)NC(C)(C)C#N)C1=O (centres unmarked) [Compound B377]													pest or weed control at 250 g/ha ([1]; post-emergence, 360 h, Rate 250 g/ha, post-emergence, visual assessment 15 DAA, 100%=total damage, 0%=no damage, read-out: Post-emergence herbicidal activity (percentage phytotoxicity) ECHCG POST): 90%; pest or weed control at 250 g/ha ([1]; pre-emergence, 480 h, Rate 250 g/ha, pre-emergence, visual assessment 20 DAA, 100%=total damage, 0%=no damage, read-out: Pre-emergence herbicidal activity (percentage phytotoxicity) ECHCG PRE): 100%; pest or weed control at 250 g/ha (Avena fatua (AVEFA); post-emergence, 360 h, Rate 250 g/ha, post-emergence, visual assessment 15 DAA, 100%=total damage, 0%=no damage, read-out: Post-emergence herbicidal activity (percentage phytotoxicity) AVEFA POST): 100%; pest or weed control at 250 g/ha (Avena fatua (AVEFA); pre-emergence, 480 h, Rate 250 g/ha, pre-emergence, visual assessment 20 DAA, 100%=total damage, 0%=no damage, read-out: Pre-emergence herbicidal activity (percentage phytotoxicity) AVEFA PRE): 90%; pest or weed control at 250 g/ha (Lolium perenne (LOLPE); post-emergence, 360 h, Rate 250 g/ha, post-emergence, visual assessment 15 DAA, 100%=total damage, 0%=no damage, read-out: Post-emergence herbicidal activity (percentage phytotoxicity) LOLPE POST): 30%; pest or weed control at 250 g/ha (Lolium perenne (LOLPE); pre-emergence, 480 h, Rate 250 g/ha, pre-emergence, visual assessment 20 DAA, 100%=total damage, 0%=no damage, read-out: Pre-emergence herbicidal activity (percentage phytotoxicity) LOLPE PRE): 80%; pest or weed control at 250 g/ha ([2]; post-emergence, 360 h, Rate 250 g/ha, post-emergence, visual assessment 15 DAA, 100%=total damage, 0%=no damage, read-out: Post-emergence herbicidal activity (percentage phytotoxicity) ALOMY POST): 90%; pest or weed control at 250 g/ha ([2]; pre-emergence, 480 h, Rate 250 g/ha, pre-emergence, visual assessment 20 DAA, 100%=total damage, 0%=no damage, read-out: Pre-emergence herbicidal activity (percentage phytotoxicity) ALOMY PRE): 90%
Cc1ccc(/C=C/C2(NC(=O)CC3CC(=O)C(c4c(C)cc(C)cc4C)C3=O)CC2)cc1 (centres unmarked) [Compound A101]									20%	0%	40%	10%	
C/C=C/c1cc(C)c(C2C(=O)CC(CC(=O)N3CCOCC3)C2=O)c(CC)c1 (centres unmarked) [Compound B137]	90%	60%	100%	50%	100%	50%	100%	20%					
Cc1cc(C)c(C2C(=O)CC(CC(=O)NCc3ncc(C(F)(F)F)cc3Cl)C2=O)c(C)c1 (centres unmarked) [Compound A109]									80%	80%	80%	90%	pest or weed control at 250 g/ha [1, 20]: 80%; pest or weed control at 250 g/ha (Avena fatua (AVEFA); [22]): 50%; pest or weed control at 250 g/ha (Lolium perenne (LOLPE); [24]): 90%; pest or weed control at 250 g/ha [2, 26]: 90%
CCc1cccc(C)c1C1C(=O)CC(CC(=O)NC(C)(C)C)C1=O (centres unmarked) [Compound B149]	90%	100%	90%	80%	80%	90%	90%	90%					
